“And” between values parts separate entries of the source, which are not always exact repeats. Identical values can stand only once. Like-named read-outs stand apart in the source and are kept apart here.
Tests used:
Male Sprague-Dawley rats = assay type: in vivo, rat; conditions: intraperitoneal injection
Sprague Dawley rats = conditions: rat
Outline: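 Toxicity calls (necrosis present or absent at 72 h) and histopathology scores were correlated with tissue gene expression from Crl:CD Sprague Dawley rats. Animals, usually 3 treated with compound by i.p. route and 3 given vehicle, were killed at 6, 24 or 72 h and tissues frozen immediately in liquid nitrogen.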

[1] = tested on: toxicologically relevant rat genes (rat CT array); conditions: rat, in vivo

Compound: CC(=N)S [thioacetamide]
- hepatocellular necrosis by histopathology (Male Sprague-Dawley rats; 200 mg/kg): induced hepatocellular necrosis

Compound: S=C=Nc1cccc2ccccc12 [1-naphthylisothiocyanate]
- toxicity at the high dose (Sprague Dawley rats; high dose of Table 1, liver necrosis at 72 hours): produced toxicity
- Liver Necrosis (Sprague Dawley rats; intraperitoneal, dose 15 mgkg, 72 hours after treatment): no
- Score (histopathology liver necrosis severity score) (Sprague Dawley rats; intraperitoneal, dose 15 mgkg, 72 hours, 1 = not remarkable, 2 and higher increasing severity): 1
- Liver Necrosis (Sprague Dawley rats; intraperitoneal, dose 60 mgkg, 72 hours after treatment): Yes
- Score (histopathology liver necrosis severity score) (Sprague Dawley rats; intraperitoneal, dose 60 mgkg, 72 hours, 1 = not remarkable, 2 and higher increasing severity): 2
- hepatocellular necrosis by histopathology (Male Sprague-Dawley rats; 100 mg/kg): induced hepatocellular necrosis

Compound: C[C@@H]1C[C@H]2[C@@H]3CCC4=CC(=O)C=C[C@]4(C)[C@@]3(F)[C@@H](O)C[C@]2(C)[C@@]1(O)C(=O)CO [dexamethasone]
- Score (histopathology liver necrosis severity score) (Sprague Dawley rats; Sprague Dawley, in vivo, ip, 8 mg/kg, 72 h): 1
- Score (histopathology liver necrosis severity score) (Sprague Dawley rats; Sprague Dawley, in vivo, ip, 30 mg/kg, 72 h): 1
- Liver Toxicity Necrosis Classification (Sprague Dawley rats; in vivo): no
- Liver Necrosis (Sprague Dawley rats; in vivo, ip, 8 mg/kg): no
- Liver Necrosis (Sprague Dawley rats; in vivo, ip, 30 mg/kg): no
- 60S ribosomal protein L6 expression [1]: 0.8901 and 1.098 (2×) and 0.9353
- Adenine nucleotide translocator 1 expression [1]: 0.9053 and 1.087 and 0.9653 and 0.9797
- Alpha-2-macroglobulin, sequence 2 expression [1]: 0.8488 and 1.069 and 0.9789 and 0.9595
- Alpha-2-microglobulin expression [1]: 0.9657 and 0.9413
- Alpha-tubulin expression [1]: 0.8272 and 1.251 and 0.9313 and 1.093
- Apolipoprotein All expression [1]: 0.7858 and 0.4198 and 0.803 and 0.4911
- Beta-tubulin, class I expression [1]: 0.8776 and 1.559 and 0.9809 and 1.151
- Calpactin I heavy chain expression [1]: 1.271 and 1.029
- Cofilin expression [1]: 1.006 and 0.9999
- Collagen type II expression [1]: 0.9739 and 1.08 and 1.31
- Cystatin C expression [1]: 0.8226 and 0.8364 and 1.078
- Cytochrome P450 2C11 expression [1]: 1.275
- Dynamin-1 (D100) expression [1]: 1.017 and 1.094 and 0.908 and 0.9644
- Elongation factor-1 alpha expression [1]: 0.8912 and 1.18 and 1.019
- F1-ATPase beta subunit expression [1]: 0.9797 and 1.576 and 1.032 and 1.236
- Gamma-actin, cytoplasmic expression [1]: 0.9178 and 0.883 and 0.9507
- Glutathione S-transferase theta-1 expression [1]: 0.9901 and 0.9291 and 0.9991 and 0.8886
- Glycine methyltransferase expression [1]: 1.124 and 1.982 and 1.013 and 1.714
- Heme oxygenase expression [1]: 0.8094 and 0.8311 and 0.7467
- High affinity IgE receptor gamma chain (FcERIgamma) expression [1]: 0.9808 and 0.8055 and 0.8812 and 0.8054
- IgE binding protein expression [1]: 1.039 and 0.992 and 1.096
- Insulin-like growth factor I, exon 6 expression [1]: 0.8498 and 0.631 and 1.058 and 0.6827
- Melanoma-associated antigen ME491 expression [1]: 1.042 and 1.057 and 0.9592 and 0.993
- NADP-dependent isocitrate dehydrogenase, cytosolic expression [1]: 0.9222 and 0.7332 and 0.8853 and 0.7428
- NIPK expression [1]: 0.9259 and 0.8897 and 0.7728
- Osteoactivin expression [1]: 0.8926 and 1.029 and 0.8681
- Phase-1 RCT-39 expression [1]: 0.9168
- Phase-1 RCT-57 expression [1]: 0.9696
- Phase-1 RCT-78 expression [1]: 0.8839
- Phase-1 RCT-81 expression [1]: 0.9341
- Phase-1 RCT-107 expression [1]: 1.099 and 1.846 and 1.664
- Phase-1 RCT-138 expression [1]: 0.9192 and 0.9399 and 0.9819
- Phase-1 RCT-146 expression [1]: 0.9664
- Phase-1 RCT-149 expression [1]: 0.7735
- Phase-1 RCT-164 expression [1]: 0.8597 and 0.7256 and 0.7203
- Phase-1 RCT-179 expression [1]: 0.9599 and 0.8496
- Phase-1 RCT-192 expression [1]: 0.9855
- Phase-1 RCT-295 expression [1]: 0.9503
- Stathmin expression [1]: 1.058 and 1.063
- Uncoupling protein 2 expression [1]: 0.8754 and 1.097 and 0.9302
- alpha-1,2-fucosyltrans-ferase expression [1]: 0.8942 and 0.8707 and 0.7596
